Experimental data as given in PubChem BioAssay (NCI).
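Test compounds were applied to cells in 96-well plates for 48 hours at 5 doses. TGI denotes the concentration required for complete inhibition of growth.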

Assays:
Experiment in all cases: inhibition of tumour cell growth, NCI panel, 48 h
786-0 renal = test system: 786-0 renal
A498 renal = test system: A498 renal
A549 NSCLC = test system: A549 NSCLC
ACHN renal = test system: ACHN renal
BT-549 breast = test system: BT-549 breast
CAKI-1 renal = test system: CAKI-1 renal
CCRF-CEM leukemia = test system: CCRF-CEM leukemia
COLO 205 colon = test system: COLO 205 colon
DU-145 prostate = test system: DU-145 prostate
EKVX NSCLC = test system: EKVX NSCLC
HCC-2998 colon = test system: HCC-2998 colon
HCT-116 colon = test system: HCT-116 colon
HCT-15 colon = test system: HCT-15 colon
HL-60(TB) leukemia = test system: HL-60(TB) leukemia
HOP-62 NSCLC = test system: HOP-62 NSCLC
HOP-92 NSCLC = test system: HOP-92 NSCLC
HS 578T breast = test system: HS 578T breast
HT29 colon = test system: HT29 colon
IGROV1 ovarian = test system: IGROV1 ovarian
K-562 leukemia = test system: K-562 leukemia
KM12 colon = test system: KM12 colon
LOX IMVI melanoma = test system: LOX IMVI melanoma
M14 melanoma = test system: M14 melanoma
MALME-3M melanoma = test system: MALME-3M melanoma
MCF7 breast = test system: MCF7 breast
MDA-MB-231 breast = test system: MDA-MB-231 breast
MDA-MB-435 = test system: MDA-MB-435
MDA-N = test system: MDA-N
MOLT-4 leukemia = test system: MOLT-4 leukemia
NCI-H23 lung = test system: NCI-H23 lung
NCI-H460 lung = test system: NCI-H460 lung
NCI-H522 lung = test system: NCI-H522 lung
NCI/ADR-RES ovarian = test system: NCI/ADR-RES ovarian
OVCAR-3 ovarian = test system: OVCAR-3 ovarian
OVCAR-5 ovarian = test system: OVCAR-5 ovarian
OVCAR-8 ovarian = test system: OVCAR-8 ovarian
PC-3 prostate = test system: PC-3 prostate
RPMI-8226 leukemia = test system: RPMI-8226 leukemia
RXF 393 renal = test system: RXF 393 renal
SF-268 CNS = test system: SF-268 CNS
SF-295 CNS = test system: SF-295 CNS
SF-539 CNS = test system: SF-539 CNS
SK-MEL-2 melanoma = test system: SK-MEL-2 melanoma
SK-MEL-28 melanoma = test system: SK-MEL-28 melanoma
SK-MEL-5 melanoma = test system: SK-MEL-5 melanoma
SK-OV-3 ovarian = test system: SK-OV-3 ovarian
SN12C renal = test system: SN12C renal
SNB-19 CNS = test system: SNB-19 CNS
SNB-75 CNS = test system: SNB-75 CNS
SR leukemia = test system: SR leukemia
SW-620 colon = test system: SW-620 colon
TK-10 renal = test system: TK-10 renal
U251 CNS = test system: U251 CNS
UACC-257 melanoma = test system: UACC-257 melanoma
UACC-62 melanoma = test system: UACC-62 melanoma
UO-31 renal = test system: UO-31 renal
NCI-H226 lung = test system: NCI-H226 lung
OVCAR-4 ovarian = test system: OVCAR-4 ovarian

O=[N+]([O-])c1ccc2sc(C=Nc3ccc(O)cc3)cc2c1
TGI (786-0 renal): 40.4 µM
TGI (A498 renal): > 100 µM
TGI (A549 NSCLC): > 100 µM
TGI (ACHN renal): > 100 µM
TGI (BT-549 breast): > 100 µM
TGI (CAKI-1 renal): 43.5 µM
TGI (CCRF-CEM leukemia): 59.6 µM
TGI (COLO 205 colon): > 100 µM
TGI (DU-145 prostate): > 100 µM
TGI (EKVX NSCLC): > 100 µM
TGI (HCC-2998 colon): 56.6 µM
TGI (HCT-116 colon): > 100 µM
TGI (HCT-15 colon): > 100 µM
TGI (HL-60(TB) leukemia): 53.2 µM
TGI (HOP-62 NSCLC): > 100 µM
TGI (HOP-92 NSCLC): > 100 µM
TGI (HS 578T breast): 66.4 µM
TGI (HT29 colon): > 100 µM
TGI (IGROV1 ovarian): > 100 µM
TGI (K-562 leukemia): 43 µM
TGI (KM12 colon): > 100 µM
TGI (LOX IMVI melanoma): 51.2 µM
TGI (M14 melanoma): > 100 µM
TGI (MALME-3M melanoma): > 100 µM
TGI (MCF7 breast): 47.7 µM
TGI (MDA-MB-231 breast): 44.5 µM
TGI (MDA-MB-435): 34.3 µM
TGI (MDA-N): 80.6 µM
TGI (MOLT-4 leukemia): 44.6 µM
TGI (NCI-H23 lung): > 100 µM
TGI (NCI-H460 lung): > 100 µM
TGI (NCI-H522 lung): > 100 µM
TGI (NCI/ADR-RES ovarian): > 100 µM
TGI (OVCAR-3 ovarian): 28.6 µM
TGI (OVCAR-5 ovarian): > 100 µM
TGI (OVCAR-8 ovarian): > 100 µM
TGI (PC-3 prostate): > 100 µM
TGI (RPMI-8226 leukemia): 79.7 µM
TGI (RXF 393 renal): 57.9 µM
TGI (SF-268 CNS): > 100 µM
TGI (SF-295 CNS): > 100 µM
TGI (SF-539 CNS): 55.4 µM
TGI (SK-MEL-2 melanoma): 59 µM
TGI (SK-MEL-28 melanoma): > 100 µM
TGI (SK-MEL-5 melanoma): 68 µM
TGI (SK-OV-3 ovarian): > 100 µM
TGI (SN12C renal): > 100 µM
TGI (SNB-19 CNS): > 100 µM
TGI (SNB-75 CNS): 49.9 µM
TGI (SR leukemia): 97 µM
TGI (SW-620 colon): 43.9 µM
TGI (TK-10 renal): > 100 µM
TGI (U251 CNS): 42.7 µM
TGI (UACC-257 melanoma): 56.2 µM
TGI (UACC-62 melanoma): 61.9 µM
TGI (UO-31 renal): > 100 µM

COc1cc(/C=C2\CCC/C(=C\c3ccc(OC(=O)CCCCC4CCSS4)c(OC)c3)C2=O)ccc1OC(=O)CCCCC1CCSS1 (stereo not given)
TGI (786-0 renal): > 100 µM
TGI (A498 renal): > 100 µM
TGI (A549 NSCLC): > 100 µM
TGI (ACHN renal): > 100 µM
TGI (BT-549 breast): > 100 µM
TGI (CCRF-CEM leukemia): > 100 µM
TGI (COLO 205 colon): > 100 µM
TGI (DU-145 prostate): > 100 µM
TGI (EKVX NSCLC): > 100 µM
TGI (HCT-116 colon): > 100 µM
TGI (HCT-15 colon): > 100 µM
TGI (HL-60(TB) leukemia): > 100 µM
TGI (HOP-62 NSCLC): > 100 µM
TGI (HS 578T breast): > 100 µM
TGI (HT29 colon): > 100 µM
TGI (IGROV1 ovarian): > 100 µM
TGI (K-562 leukemia): > 100 µM
TGI (KM12 colon): > 100 µM
TGI (LOX IMVI melanoma): > 100 µM
TGI (M14 melanoma): > 100 µM
TGI (MALME-3M melanoma): > 100 µM
TGI (MCF7 breast): > 100 µM
TGI (MDA-MB-231 breast): > 100 µM
TGI (MDA-MB-435): > 100 µM
TGI (MDA-N): > 100 µM
TGI (MOLT-4 leukemia): > 100 µM
TGI (NCI-H226 lung): > 100 µM
TGI (NCI-H23 lung): > 100 µM
TGI (NCI-H460 lung): > 100 µM
TGI (NCI-H522 lung): > 100 µM
TGI (NCI/ADR-RES ovarian): > 100 µM
TGI (OVCAR-3 ovarian): > 100 µM
TGI (OVCAR-4 ovarian): > 100 µM
TGI (OVCAR-5 ovarian): > 100 µM
TGI (OVCAR-8 ovarian): > 100 µM
TGI (PC-3 prostate): > 100 µM
TGI (RPMI-8226 leukemia): > 100 µM
TGI (RXF 393 renal): > 100 µM
TGI (SF-268 CNS): > 100 µM
TGI (SF-295 CNS): > 100 µM
TGI (SF-539 CNS): > 100 µM
TGI (SK-MEL-2 melanoma): > 100 µM
TGI (SK-MEL-28 melanoma): > 100 µM
TGI (SK-MEL-5 melanoma): > 100 µM
TGI (SK-OV-3 ovarian): > 100 µM
TGI (SN12C renal): > 100 µM
TGI (SNB-19 CNS): > 100 µM
TGI (SNB-75 CNS): > 100 µM
TGI (SW-620 colon): > 100 µM
TGI (TK-10 renal): > 100 µM
TGI (U251 CNS): > 100 µM
TGI (UACC-257 melanoma): > 100 µM
TGI (UACC-62 melanoma): > 100 µM
TGI (UO-31 renal): > 100 µM

CCOC(=O)C1(C)CCCc2sc(N)c(C#N)c21 (stereo not given)
TGI (786-0 renal): > 100 µM
TGI (A498 renal): > 100 µM
TGI (A549 NSCLC): > 100 µM
TGI (ACHN renal): > 100 µM
TGI (BT-549 breast): > 100 µM
TGI (COLO 205 colon): > 100 µM
TGI (EKVX NSCLC): > 100 µM
TGI (HCC-2998 colon): > 100 µM
TGI (HCT-116 colon): > 100 µM
TGI (HCT-15 colon): > 100 µM
TGI (HL-60(TB) leukemia): > 100 µM
TGI (HOP-62 NSCLC): > 100 µM
TGI (HOP-92 NSCLC): > 100 µM
TGI (HS 578T breast): > 100 µM
TGI (HT29 colon): > 100 µM
TGI (IGROV1 ovarian): > 100 µM
TGI (K-562 leukemia): > 100 µM
TGI (KM12 colon): > 100 µM
TGI (M14 melanoma): > 100 µM
TGI (MALME-3M melanoma): > 100 µM
TGI (MCF7 breast): > 100 µM
TGI (MDA-MB-231 breast): > 100 µM
TGI (MDA-N): > 100 µM
TGI (MOLT-4 leukemia): > 100 µM
TGI (NCI-H226 lung): > 100 µM
TGI (NCI-H23 lung): > 100 µM
TGI (NCI-H460 lung): > 100 µM
TGI (OVCAR-5 ovarian): > 100 µM
TGI (OVCAR-8 ovarian): > 100 µM
TGI (PC-3 prostate): > 100 µM
TGI (RPMI-8226 leukemia): > 100 µM
TGI (RXF 393 renal): > 100 µM
TGI (SK-MEL-2 melanoma): > 100 µM
TGI (SK-MEL-28 melanoma): > 100 µM
TGI (SK-MEL-5 melanoma): > 100 µM
TGI (SN12C renal): > 100 µM
TGI (SNB-19 CNS): > 100 µM
TGI (SNB-75 CNS): > 100 µM
TGI (SR leukemia): > 100 µM
TGI (SW-620 colon): > 100 µM
TGI (TK-10 renal): > 100 µM
TGI (U251 CNS): > 100 µM
TGI (UACC-257 melanoma): > 100 µM
TGI (UACC-62 melanoma): > 100 µM
TGI (UO-31 renal): > 100 µM
